Data: BindingDB's records for doi:10.3109/14756366.2012.750311 (Atatürk University, 2014)

How the values were obtained:
Carbonic anhydrase 1 = Carbonic anhydrase 1 (Homo sapiens, UniProt P00915); assay: Hydratase and Esterase Activity Assays
Description: (§1) The effect of novel sulfonamides 28-33 on HCA isozyme activity was determined colorimetrically using CO2-hydration method of Wilbur and Anderson29 described previously [G l in et al., Biol. Pharm. Bull., 27:613-16]. Esterase activity was determined according to the method described by Verpoorte et al [Verpoorte et al., J. Biol. Chem., 242:4221-9].

Carbonic anhydrase 2 = Carbonic anhydrase 2 (Homo sapiens, UniProt P00918); assay: Hydratase and Esterase Activity Assays
Description: as §1

Carbonic anhydrase 1, sequence (P00915 whole entry): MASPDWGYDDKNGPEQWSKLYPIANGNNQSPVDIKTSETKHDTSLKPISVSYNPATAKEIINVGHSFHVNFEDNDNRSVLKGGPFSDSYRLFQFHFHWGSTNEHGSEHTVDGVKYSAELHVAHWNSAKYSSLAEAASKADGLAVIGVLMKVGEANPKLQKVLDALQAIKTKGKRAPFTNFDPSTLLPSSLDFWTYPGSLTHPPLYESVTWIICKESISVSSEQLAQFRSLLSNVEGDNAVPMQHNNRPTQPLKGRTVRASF

Structure (SMILES): CS(=O)(=O)NC1CCc2ccccc2C1 (stereo not given) [N-(1,2,3,4-tetrahydronaphthalene-2-yl)methanesulfonamide (31)]
- Ki (Carbonic anhydrase 1): 228 µM
- IC50 (Carbonic anhydrase 2): 338 µM
- Ki (Carbonic anhydrase 2): 94 µM

Structure (SMILES): COc1cc2c(cc1OC)CC(NS(C)(=O)=O)C2 [N-(5,6-dimethoxy-2,3-dihydro-1H-inden-2-yl)methanesulfonamide (32)]
- IC50 (Carbonic anhydrase 1): 266 µM
- Ki (Carbonic anhydrase 1): 46 µM
- Ki (Carbonic anhydrase 2): 372 µM

Structure (SMILES): COc1cc2c(cc1OC)C(NS(C)(=O)=O)CC2 (stereo not given) [N-(5,6-dimethoxyindane-1-yl)methanesulfonamide (28)]
- IC50 (Carbonic anhydrase 1): 487 µM
- Ki (Carbonic anhydrase 1): 52 µM
- Ki (Carbonic anhydrase 2): 215 µM

Structure (SMILES): COc1cccc2c1CCCC2NS(C)(=O)=O (stereo not given) [N-(5-metoksi-1,2,3,4-tetrahydronaphthalene-1-yl)methanesulfonamide (30)]
- Ki (Carbonic anhydrase 1): 185 µM
- Ki (Carbonic anhydrase 2): 112 µM

Structure (SMILES): CS(=O)(=O)NC1CCc2ccccc21 (stereo not given) [N-(Indane-1-yl)methanesulfonamide (29)]
- Ki (Carbonic anhydrase 1): 173 µM
- Ki (Carbonic anhydrase 2): 211 µM

Structure (SMILES): CS(=O)(=O)NC1Cc2ccccc2C1 [N-(Indane-2-yl)methanesulfonamide (33)]
- Ki (Carbonic anhydrase 1): 104 µM
- Ki (Carbonic anhydrase 2): 170 µM
